Assay in all cases: Bioactivity: growth inhibition / minimal inhibitory concentration in liquid culture
Common to all, as to assay type: cell-based

The subject of assay [1] is Micrococcus luteus DSM 348. The following applies: DSM348, 48 h, M. luteus DSM 348, liquid 2x TY, microtiterplates incubated 2 days at 25 degrees Celsius, 550 rpm. From the text: (§1) The adipoyl-7-amino-3-carbamoyloxymethyl-3-cephem-4-carboxylic acid prepared according to Example 3 was used to evaluate its activity versus different bacteria. Bacteria used were: Escherichia coli ESS [xxxref komt nogxx], Micrococcus luteus DSM 348 [Andrade, A. C., Van Nistelrooy, J. G. M., Peery, R. B., Skatrud, P. L., De Waard, M. A., 2000, The role of ABC transporters from Aspergillus nidulans in protection against cytotoxic agents and in antibiotic production] and Bacillus subtilis ATCC 6633 [xxxref komt nogxx] The bacteria were grown overnight in liquid 2× TY [xxxref komt nogxx] at 37 degrees and 280 rotations per minute and subsequently diluted 1000-fold in fresh medium. Two ml deep-well microtiterplates were inoculated with 1 ml of the diluted bacterial cultures and different concentrations of adipoyl-7-amino-3-carbamoyloxymethyl-3-cephem-4-carboxylic acid (adipoyl-ACCA or Ad-ACCA) were added to individual wells wells. As control several other active and less-active b-lactams were used: 6-APA, Adipoyl-6-APA, 7-ADCA, adipoyl-7-ADCA, 7-ACA, cephalosporinC and cefuroxime. The microtiterplates were incubated for 2 days at 25 degrees Celsius and 550 rotations per minute.
(§2) The results for growth inhibition by adipoyl-7-ADCA, adipoyl-ACCA and cefuroxime are summarized in FIGS. 14 (B. subtilis), 15 (E. coli) and 16 (M. luteus).
(§3) The minimal inhibitory concentrations of adipoyl-7-amino-3-carbamoyloxymethyl-3-cephem-4-carboxylic acid for B. subtilis ATCC 6633, E. coli ESS and M. luteus DSM 348 were 4, 7 and 7 uM, respectively.

In assay [2] the test system is Bacillus subtilis ATCC 6633. The following applies: ATCC6633, 48 h, B. subtilis ATCC 6633, liquid 2x TY, microtiterplates incubated 2 days at 25 degrees Celsius, 550 rpm.
Description: as §1, §2, §3

The subject of assay [3] is Escherichia coli ESS. The following applies: 48 h, E. coli ESS, liquid 2x TY, microtiterplates incubated 2 days at 25 degrees Celsius, 550 rpm.
Description: as §1, §2, §3

Each structure is given as a SMILES string. Values after ≈ are worked out from the molar mass of the structure shown.

The text below walks through data of patent publication US20070093465A1, “Cephem compound” (priority 2003, published 2007).

One may read the MIC as the lowest concentration that inhibits growth of the organism.

For the compound `NC(=O)OCC1=C(C(=O)O)N2C(=O)[C@@H](NC(=O)CCCCC(=O)O)[C@H]2SC1` [adipoyl-7-amino-3-carbamoyloxymethyl-3-cephem-4-carboxylic acid], the MIC in assay [1] is 7 µM (≈ 2.81 µg/mL); in assay [2] it was 4 µM (≈ 1.61 µg/mL); in assay [3] it was 7 µM (≈ 2.81 µg/mL).
